# Patent publication US11351140B2, “Resolvin mimetic antibodies and uses thereof” (J. Craig Venter Institute, Inc., priority 2017, dated 2022)
# T1: ERV-1 receptor (CHO-ERV-1 positive cells) (Homo sapiens, UniProt Q99788)
# T1 construct: host or cells: CHO-K1/CMKLR1/Ga15 (CHO ERV1+)
# T1 sequence (Q99788 1-373): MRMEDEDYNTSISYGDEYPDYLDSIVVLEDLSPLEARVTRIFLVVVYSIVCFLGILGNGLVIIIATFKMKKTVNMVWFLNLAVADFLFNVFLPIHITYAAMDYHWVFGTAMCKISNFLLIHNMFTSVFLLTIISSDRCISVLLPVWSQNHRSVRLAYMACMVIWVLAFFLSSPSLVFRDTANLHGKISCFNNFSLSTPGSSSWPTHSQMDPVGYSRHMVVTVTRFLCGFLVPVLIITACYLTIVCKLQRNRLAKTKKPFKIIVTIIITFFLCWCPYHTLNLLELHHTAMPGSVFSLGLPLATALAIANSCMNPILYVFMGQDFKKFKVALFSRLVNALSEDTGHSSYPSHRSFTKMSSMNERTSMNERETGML
# B1: C4: resolvimab, anti-ERV-1 monoclonal antibody; VH SEQ ID NO: 14, VK SEQ ID NO: 16 (antibody, V domains shown)
# VH: EVKLEESGAELVMPGASVKLSCKASGYTFTSYWMHWVKQRPGQGLEWVAEIDPSDSYTNYNQKFKGKATLTVDKSSSTAYMQLSSLTSEDSAVYYCARDGDILTTVVAKGFVYWGQGTLV
# VL: LSLPVSLGDQASISCRSSQTIVHSNGNTYLEWYLQKPGQSPKLLIYKVSNRFSGVPDRFSGSGSGTDFTLKISRVEAEDLGVYYCFQGSHVPWTFGGGTKLEIK
# modifications: Immunoglobulin VH Region; Immunoglobulin VL(K) region
# Legend:
# [1] = molecular target: T1, ERV-1 receptor (CHO-ERV-1 positive cells); test: Intracellular calcium signaling (Calcium5 FLIPR) in CHO ERV1+ cells; assay type: cell-based; conditions: 1, 10, 100 nM
# Experimental: To investigate calcium mobilization, cells were transferred to a 96-well plate at density of 60,000 cells per well in 80 μl of growth medium 18 hours prior to the day of experiment and maintained at 37° C./5% CO2.
# After aspiration of the media, cells were labeled with the fluorescent probe, Calcium5 FLIPR (Medical Devices). After agonist treatment, detection of changes in fluorescence were detected by microplate reader and expressed as change in relative fluorescence units (ΔRFU).
# To investigate calcium mobilization, CHO ERV1+ cells were transferred to a 96-well plate at density of 60,000 cells per well in 80 μl of growth medium 18 hours prior to the day of experiment and maintained at 37° C./5% CO2. After aspiration of the media, cells were labeled with the fluorescent probe, Calcium5 FLIPR (Medical Devices). After agonist treatment, detection of changes in fluorescence were detected by microplate reader and expressed as change in relative fluorescence units (ARFU).
# To determine whether the immune complexes between ERV-1 receptor and various anti-ERV-1 antibodies permit the bound immune complex to interact with ERV-1 cellular receptor functions, an in vitro assay was devised. To that end, calcium intracellular signaling was measured upon agonist ligand binding. […] After 20 seconds, calcium mobilization was measured through fluorescence (FIG. 15). […]
# [2] = test system: ERV1tg mice; test: Zymosan-induced peritonitis, peritoneal lavage cells by flow cytometry; assay type: in vivo; conditions: injected together with zymosan; 12 hours of inflammation
# Experimental: Cells were extracted from peritoneal exudates collected after 12 hours of intraperitoneal injection of zymosan-A (1 mg/ml in PBS). Isolated cells were incubated with anti-Fc receptor (BD) blocking antibody (5 μg/ml×106 cells, 15 min) and then labeled with anti-human ERV1 alexafluor 488-conjugated antibody (10 μg/ml×106 cells, 1 hour at RT) or anti-IgG alexafluor 488 (isotype control, R&D Systems). Expression of ERV1 on neutrophils was evaluated by immunofluorescence and quantified by flow cytometry. ERV-1, […] positive monocytes were stained with PE-conjugated anti-mouse Arg-1 and FITC-conjugated anti-mouse EGR-(10 μg/ml×106 cells, 1 hour at RT) (BD Biosciences).
# Peritonitis was initiated by zymosan particle injections […] to ERV1tg mice peritoneal tissues. It had been previously established that Resolvin-E1 could affect inflammation-related responses in an ERV-1 dependent manner in vivo in cells derived from diabetic subjects (Freire, M. et al., J. Immunol. 198(2):718-728 (2017)). To further understand the biological response induced by resolvimabs, purified clones were injected together with the zymosan stimuli (FIGS. 9A-D). […] We have looked if these compound would influence the phenotype of neutrophils and monocytes after 12 hours of inflammation in vivo.
Molecule,agonist functions (calcium intracellular signaling) [1],inflammatory infiltrate (flow cytometry quantification) [2]
"CC[C@@H](O)/C=C/C=C\C[C@@H](O)/C=C/C=C/C=C\[C@@H](O)CCCC(=O)O [resolvinE-1, resolvin E1]",found,
B1,,decrease
